Measured values taken from patent publication US20240301319A1, “PERFUMING COMPOSITIONS” (FIRMNICH SA, priority 2017, published 2024).
Counter-ions that a name gives are not always drawn. Like-named read-outs stand apart in the source and are kept apart here.

Assays:
[1] = Odor threshold and odor value of perfuming compounds (Tables 4 to 10)
[2] = Volatility of perfuming compounds (Tables 4 to 10), with top/middle/bottom note type; assay type: physicochemical
Outline: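 Note type follows from air volatility (μg/l): bottom 49–0.1, middle 99–50, top 70,000–100. Compounds are listed within watery, green, fruity, citrus, sweet, gourmand and woody families.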

[3] = Table 6, perfuming compounds having a fruity note
[4] = Table 7, citrus note, equals volatility divided by odor threshold
[5] = Table 6, perfuming compounds having a fruity note, note type by volatility
[6] = Table 7, citrus note, top, middle or bottom note
[7] = Table 9, perfuming compounds having a gourmand note, note type by volatility
[8] = perfuming compounds having a green note
[9] = note type (Top/Middle/Bottom) by volatility, perfuming compounds having a green note
[10] = Table 4, watery note, equals volatility divided by odor threshold
[11] = Table 4, watery note, top, middle or bottom note
[12] = Table 8, perfuming compounds having a sweet note

## CCCC1CCCC(=O)O1 (racemic) [(+−)-6-propyltetrahydro-2H-pyran-2-one]
[1]; [3]
  Odor Threshold: 2.17E−04 μg/l air
  Odor Value: 2.65E+05
[1]; Table 7, citrus note
  Odor Threshold (μg/l air): 2.17E−04 μg/l air
[1]; [4]
  Odor Value: 2.65E+05
[2]; [3]
  Volatility: 57.43 μg/l air
[2]; [5]
  Type: Middle
[2]; Table 7, citrus note
  Volatility (μg/l air): 57.43 μg/l air
[2]; [6]
  Type: Middle

## CCCCC(CC)C(=O)OC (racemic) [(+−)-methyl 2-ethylhexanoate]
[1]; Table 10, woody note
  Odor Threshold: 1.74E−01 μg/l air
[2]; [3]
  Volatility: 6677.64 μg/l air
[2]; [5]
  Type: TOP (perfuming compounds having a volatility ranging from 70,000 to 100 μg/l in air are referred to as “top notes”)
[2]; Table 10, perfuming compounds having a woody note, note type by volatility
  Type: Top
[2]; Table 10, woody note
  Volatility: 6677.64 μg/l air

## CC(=O)OCCC1CCCCC1 [2-CYCLOHEXYLETHYL ACETATE]
[1]; Table 9, gourmand note
  Odor Threshold: 4.49E−02 μg/l air
[2]; Table 9, gourmand note
  Volatility: 489.45 μg/l air
[2]; [7]
  Type: Top

## CC(CO)c1ccccc1 (racemic) [(+−)-2-phenyl-1-propanol]
[1]; [8]
  Odor Threshold (μg/l air): 3.62E−02 μg/l air
[2]; [9]
  Type: Top
[2]; [8]
  Volatility (μg/l air): 142.19 μg/l air

## O=Cc1ccc2c(c1)OCO2 [benzo[d][1,3]dioxole-5-carbaldehyde]
[1]; Table 9, gourmand note
  Odor Threshold: 1.01E−04 μg/l air
[2]; Table 9, gourmand note
  Volatility: 61.82 μg/l air
[2]; [7]
  Type: Middle

## C=CC(C)CC(=O)CC(C)C (racemic)
[1]; Table 7, citrus note
  Odor Threshold (μg/l air): 2.78E−01 μg/l air
[1]; [4]
  Odor Value: 1.51E+04
[2]; [3]
  Volatility: 4203.89 μg/l air
[2]; [5]
  Type: TOP (perfuming compounds having a volatility ranging from 70,000 to 100 μg/l in air are referred to as “top notes”)
[2]; Table 7, citrus note
  Volatility (μg/l air): 4203.89 μg/l air
[2]; [6]
  Type: Top

## ALLYL (3-METHYLBUTOXY)ACETATE (A) + (+−)-ALLYL (2-METHYLBUTOXY)ACETATE (B)
[1]; Table 7, citrus note
  Odor Threshold (μg/l air): 9.89E−05 μg/l air
[1]; [4]
  Odor Value: 2.65E+06
[2]; Table 7, citrus note
  Volatility (μg/l air): 261.90 μg/l air
[2]; [6]
  Type: Top

## C[C@@H]1CC[C@H]2[C@H](C)C(=O)O[C@@H]2C1
[1]; Table 9, gourmand note
  Odor Threshold: 3.46E−05 μg/l air
[2]; Table 9, gourmand note
  Volatility: 74.03 μg/l air
[2]; [7]
  Type: Middle

## CC(=O)OC(C)CC(C)(C)c1ccccc1 (racemic) [(+−)-1,3-DIMETHYL-3-PHENYLBUTYL ACETATE]
[1]; [3]
  Odor Threshold: 1.06E−02 μg/l air
  Odor Value: 4.77E+03
[1]; [8]
  Odor Threshold (μg/l air): 1.06E−02 μg/l air
[2]; [3]
  Volatility: 50.65 μg/l air
[2]; [5]
  Type: Middle
[2]; [9]
  Type: Middle
[2]; [8]
  Volatility (μg/l air): 50.65 μg/l air

## CCCCCCCCCCC=O [undecanal]
[1]; Table 4, watery note
  Odor Threshold (μg/l air): 1.65E−03 μg/l air
[1]; [10]
  Odor Value: 1.08E+05
[2]; Table 4, watery note
  Volatility (μg/l air): 178.29 μg/l air
[2]; [11]
  Type: TOP (perfuming compounds having a volatility ranging from 70,000 to 100 μg/l in air are referred to as “top notes”)

## CC(C=O)Cc1ccc(C(C)(C)C)cc1 (racemic) [(+−)-2-methyl-3-[4-(2-methyl-2-propanyl)phenyl]propanal]
[1]; Table 4, watery note
  Odor Threshold (μg/l air): 2.39E−04 μg/l air
[1]; [10]
  Odor Value: 5.38E+04
[2]; Table 4, watery note
  Volatility (μg/l air): 12.86 μg/l air
[2]; [11]
  Type: bottom (perfuming compounds having a volatility ranging from 49 to 0.1 μg/l in air are referred to as “bottom notes”)

## CC(C)CC1CC(C)(O)CCO1 (racemic) [(+−)-TETRAHYDRO-2-ISOBUTYL-4-METHYL-4(2H)-PYRANOL]
[1]; Table 4, watery note
  Odor Threshold (μg/l air): 1.35E−02 μg/l air
[1]; [10]
  Odor Value: 5.91E+03
[2]; Table 4, watery note
  Volatility (μg/l air): 79.79 μg/l air
[2]; [11]
  Type: middle (perfuming compounds having a volatility ranging from 99 to 50 μg/l in air are referred to as “middle notes”)

## CC(C)OCCc1ccccc1 [(2-ISOPROPOXYETHYL)BENZENE]
[1]; [8]
  Odor Threshold (μg/l air): 1.65E−03 μg/l air
[2]
  Volatility (μg/l air): 1714.82 μg/l air
[2]; [9]
  Type: Top

## CC/C=C\CCOC=O [(Z)-3-HEXENYL FORMATE]
[1]; [8]
  Odor Threshold (μg/l air): 2.11E−03 μg/l air
[2]; [3]
  Volatility: 9873.53 μg/l air
[2]; [5]
  Type: TOP (perfuming compounds having a volatility ranging from 70,000 to 100 μg/l in air are referred to as “top notes”)
[2]; [9]
  Type: Top
[2]; [8]
  Volatility (μg/l air): 9873.53 μg/l air

## CCCCCCCCOC(C)=O [octyl acetate]
[1]; Table 7, citrus note
  Odor Threshold (μg/l air): 1.76E−01 μg/l air
[1]; [4]
  Odor Value: 3.78E+03
[2]; [3]
  Volatility: 666.51 μg/l air
[2]; [5]
  Type: TOP (perfuming compounds having a volatility ranging from 70,000 to 100 μg/l in air are referred to as “top notes”)
[2]; Table 7, citrus note
  Volatility (μg/l air): 666.51 μg/l air
[2]; [6]
  Type: Top

## CC(C)(C)c1ccc2c(c1)OCC(=O)CO2 [7-(2-methyl-2-propanyl)-2H-1,5-benzodioxepin-3(4H)-one]
[1]; Table 4, watery note
  Odor Threshold (μg/l air): 1.53E−04 μg/l air
[1]; [10]
  Odor Value: 2.85E+04
[1]; [8]
  Odor Threshold (μg/l air): 1.53E−04 μg/l air
[2]; Table 4, watery note
  Volatility (μg/l air): 4.37 μg/l air
[2]; [11]
  Type: bottom (perfuming compounds having a volatility ranging from 49 to 0.1 μg/l in air are referred to as “bottom notes”)
[2]; [9]
  Type: Bottom
[2]; [8]
  Volatility (μg/l air): 4.37 μg/l air

## tricyclo[5.2.1.0~2,6~]dec-3-en-8-yl acetate (A) + tricyclo[5.2.1.0~2,6~]dec-4-en-8-yl acetate (B)
[1]; Table 7, citrus note
  Odor Threshold (μg/l air): 7.19E−04 μg/l air
[1]; [4]
  Odor Value: 1.34E+05
[2]; Table 7, citrus note
  Volatility (μg/l air): 96.53 μg/l air
[2]; [6]
  Type: Middle

## N#CC(=C1CCCCC1)c1ccccc1 [CYCLOHEXYLIDENE(PHENYL)ACETONITRILE]
[1]; [8]
  Odor Threshold (μg/l air): 3.31E−04 μg/l air
[2]; [9]
  Type: Bottom
[2]; [8]
  Volatility (μg/l air): 0.96 μg/l air

## Cc1ncsc1CCO [2-(4-METHYL-1,3-THIAZOL-5-YL)-1-ETHANOL]
[1]; [12]
  Odor Threshold: 2.43E−04 μg/l air
  Odor Value: 9.71E+03
[2]; [12]
  Volatility: 2.36 μg/l air
[2]; Table 8, perfuming compounds having a sweet note, note type by volatility
  Type: Bottom

## (+−)-3-(4-hydroxy-4-methylpentyl)-3-cyclohexene-1-carbaldehyde (A) + (+−)-4-(4-hydroxy-4-methylpentyl)-3-cyclohexene-1-carbaldehyde (B)
[1]; Table 4, watery note
  Odor Threshold (μg/l air): 8.81E−05 μg/l air
[1]; [10]
  Odor Value: 7.92E+03
[2]; Table 4, watery note
  Volatility (μg/l air): 0.70 μg/l air
[2]; [11]
  Type: bottom (perfuming compounds having a volatility ranging from 49 to 0.1 μg/l in air are referred to as “bottom notes”)
